Target: T1, P2Y purinoceptor 14 (Homo sapiens) (UniProt Q15391)
T1 sequence (whole entry): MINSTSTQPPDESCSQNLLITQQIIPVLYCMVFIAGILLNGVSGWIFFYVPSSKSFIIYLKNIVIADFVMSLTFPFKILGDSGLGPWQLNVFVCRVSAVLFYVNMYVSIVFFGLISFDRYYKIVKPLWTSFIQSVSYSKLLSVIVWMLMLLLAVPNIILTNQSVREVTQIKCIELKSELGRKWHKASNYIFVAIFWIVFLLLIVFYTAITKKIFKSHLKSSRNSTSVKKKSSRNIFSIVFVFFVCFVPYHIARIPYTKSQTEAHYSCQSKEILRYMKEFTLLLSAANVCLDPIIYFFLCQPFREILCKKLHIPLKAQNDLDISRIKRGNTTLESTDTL
Test: Antagonist activity at human P2Y14R expressed in human HEK293 cells assessed as inhibition of cAMP level at 100 nM incubated for 30 mins by cAMP-glo assay relative to control
Assay type: functional, cell-based
Details: filed as antagonist

inhibition [%] | SMILES
61 | CCCCOc1ccc(CC(=O)Nc2ccc(-c3cc4ccccc4o3)cc2)cc1
47 | O=C(Cc1ccc2c(c1)OCO2)Nc1ccc(-c2cc3ccccc3o2)cc1
84.6 | Cc1ccc(CC(=O)Nc2cccc(-c3nc4cc(Cl)ccc4o3)c2)cc1
83 | COc1cccc(CC(=O)Nc2cccc(-c3nc4ccccc4o3)c2)c1
70.5 | O=C(Cc1cccc(Br)c1)Nc1cccc(-c2nc3ccccc3o2)c1
75 | COc1ccc(CC(=O)Nc2ccc(-c3cc4ccccc4o3)cc2)cc1
47 | O=C(Cc1ccc(Br)cc1)Nc1ccc(-c2cc3ccccc3o2)cc1
82 | COc1cccc(CC(=O)Nc2cccc(-c3nc4cc(Cl)ccc4o3)c2)c1
86.9 | Cc1cccc(CC(=O)Nc2cc(C)cc(-c3nc4cc(Cl)ccc4o3)c2)c1
44.1 | Cc1ccc2oc(-c3cccc(NC(=O)Cc4cccc(Cl)c4)c3)nc2c1
42.1 | Cc1ccc2oc(-c3cccc(NC(=O)Cc4ccccc4Br)c3)nc2c1
68 | CC(C)(C)c1ccc(CC(=O)Nc2cccc(-c3nc4ccccc4o3)c2)cc1
83 | COc1ccccc1CC(=O)Nc1cccc(-c2nc3ccccc3o2)c1
51 | O=C(Cc1ccc(Cl)cc1)Nc1ccc(-c2cc3ccccc3o2)cc1
68.6 | O=C(Cc1ccccc1Br)Nc1cccc(-c2nc3ccccc3o2)c1
46.7 | O=C(Cc1ccc2c(c1)OCO2)Nc1cccc(-c2nc3cc(Cl)ccc3o2)c1
63.3 | O=C(Cc1ccc2c(c1)OCO2)Nc1cccc(-c2nc3ccccc3o2)c1
68.6 | O=C(Cc1ccccc1Cl)Nc1cccc(-c2nc3cc(Cl)ccc3o2)c1
78.5 | Cc1cccc(CC(=O)Nc2cccc(-c3nc4ccccc4o3)c2)c1
68 | CCCCOc1ccc(CC(=O)Nc2cccc(-c3nc4cc(Cl)ccc4o3)c2)cc1
80 | O=C(Cc1cccc(OC(F)(F)F)c1)Nc1cccc(-c2nc3ccccc3o2)c1
89 | COc1ccc(CC(=O)Nc2cccc(-c3nc4cc(Cl)ccc4o3)c2)cc1
62.2 | Cc1ccc2oc(-c3cccc(NC(=O)Cc4cccc(C(F)(F)F)c4)c3)nc2c1
85.5 | O=C(Cc1ccc(C(F)(F)F)cc1)Nc1cccc(-c2nc3cc(Cl)ccc3o2)c1

Target: T2, P2Y purinoceptor 14 (Homo sapiens, UniProt Q15391)
T2 sequence (Q15391 whole entry): T1 sequence (whole entry)
Test: Antagonist activity at human P2Y14R expressed in human HEK293 cells assessed as inhibition of cAMP level incubated for 30 mins by cAMP-glo assay
Assay type: functional, cell-based
Details: not given

IC50 [nM] | SMILES
6.7 | Cc1ccc(CC(=O)Nc2cccc(-c3nc4cc(Cl)ccc4o3)c2)cc1
24.3 | COc1cccc(CC(=O)Nc2cccc(-c3nc4ccccc4o3)c2)c1
25.4 | O=C(Cc1cccc(Br)c1)Nc1cccc(-c2nc3ccccc3o2)c1
23.8 | COc1cccc(CC(=O)Nc2cccc(-c3nc4cc(Cl)ccc4o3)c2)c1
9.7 | Cc1cccc(CC(=O)Nc2cc(C)cc(-c3nc4cc(Cl)ccc4o3)c2)c1
12.2 | COc1ccccc1CC(=O)Nc1cccc(-c2nc3ccccc3o2)c1
21.8 | Cc1cccc(CC(=O)Nc2cccc(-c3nc4ccccc4o3)c2)c1
16.2 | O=C(Cc1cccc(OC(F)(F)F)c1)Nc1cccc(-c2nc3ccccc3o2)c1
9.2 | COc1ccc(CC(=O)Nc2cccc(-c3nc4cc(Cl)ccc4o3)c2)cc1
6.1 | O=C(Cc1ccc(C(F)(F)F)cc1)Nc1cccc(-c2nc3cc(Cl)ccc3o2)c1

Source: ChEMBL document CHEMBL5131387, “Discovery and computational studies of 2-phenyl-benzoxazole acetamide derivatives as promising P2Y14R antagonists with anti-gout potential” (Eur J Med Chem, 2022)
